Data as given in US20150219624A1, “METHODS FOR IDENTIFYING ANTI-CANCER COMPOUNDS” (MEMORIAL SLOAN KETTERING CANCER CENTER, priority 2013, published 2015).

Experiments:
[1] = test system: cap-dependent translation; assay: Dual-luciferase reporter assay (capped vs IRES-driven luciferase); type: cell-based; settings: renilla and firefly luciferase either capped or under control of an IRES element
Description: Luciferase assays. Four tandem repeats of the (CGG)4 12-mer motif (GQs) or random sequence matched for length and GC content (random) were cloned into the 5′UTR of Renilla luciferase plasmid pGL4.73. Empty firefly luciferase plasmid pGL4.13 or HCV-IRES firefly were used as internal controls. Luciferase assays were performed using Dual-Luciferase Reporter Assay System (Promega E1960) following the manufacturer's instructions. GQs sequence: […]

[2] = test system: primary human T-ALL samples; assay: Viability / apoptosis induction in primary human T-ALL samples; type: cell-based
Excerpt: (§1) E) Simplified diagram of rapamycin and silvestrol mechanism of action.

KOPT-K1 xenografts = assay: KOPT-K1 xenograft study; settings: for tumor growth: d 0-6, systemic; for toxicity, death, weight loss: treated mice, therapeutic doses
Description: Statistical analysis. All Kaplan-Meier curves were analyzed using the Mantel-Cox test. The significance of xenografted tumor size differences was determined using two-way repeated measures ANOVA tests. RT-PCRs were analyzed with two tailed t-tests.
Xenografts. 5,000,000 KOPT-K1 cells in 30% matrigel (BD 354234) were injected subcutaneously into C.B-17 scid mice. […] Tumor size was measured daily by caliper. P-values were calculated using 2-way repeated measures ANOVA.
Cycloheximide (C7698) and Rapamycin (R8781) were purchased from Sigma.
D) KOPT-K1 xenograft studies.

[3] = test system: S6 phosphorylation and AKT (T308) phosphorylation; assay: Immunoblots of S6 and AKT phosphorylation in KOPT-K1 cells; type: cell-based, human; settings: 25 nM, 48 hours
Description: (§2) Immunoblots. Lysates were made using Laemli lysis buffer. 30 ug of protein was loaded onto SDS-PAGE gels then transferred onto Immobilon-FL Transfer Membranes (Millipore IPFL00010). The antibodies used were α-Tubulin (Sigma T5168), β-actin (Sigma A5316), Myc (Santa Cruz Biotechnology sc-40), p-Akt 308 (Cell Signaling 9275), Akt (Cell Signaling 9272), S6 (Cell Signaling 2317), and p-S6 (Cell Signaling 2215), Notch1 (Cell signaling 3608), Myb (Santa Cruz Biotechnology, sc-517), CDK6 (Cell Signaling 3136), EZH2 (Cell Signaling 5246), Mdm2 (Santa Cruz Biotechnology, sc-965), Bcl2 (Santa Cruz Biotechnology, sc-509), Run×1 (Cell Signaling 4336), and GAPDH (Cell Signaling 5174).
as §1

JURKAT and KOPT-K1 cells = assay: Immunoblots of target proteins in human T-ALL lines; type: cell-based; settings: 25 nM, immunoblot
Description: as §2
Given the complexity of the RF data analysis, it was important to directly confirm loss of expression for at least some of these proteins. Briefly, immunoblots on JURKAT and KOPT-K1 cells treated with silvestrol (25 nM) and loaded with equal amounts of total protein confirmed dramatic loss of MYC, NOTCH1, BCL2, and CCND3 proteins (FIG. 6A). The effect on MYC was especially striking, it was dose dependent (FIG. 6B), lasted for 48 h, and was also achieved in xenografts in vivo (Figure S6A-B). […] As expected, ACTIN, TUBULIN, and GAPDH were not affected (FIG. 6A). […] The small and significant increase in MYC mRNA levels might be consistent with prior reports of a MYC auto-regulatory mechanism (Penn et al., 1990a; Penn et al., 1990b) (FIG. 6C).
FIG. 6 depicts validation of selected silvestrol targets. A) Immunoblots of lysates from human T-ALL lines treated with silvestrol (25 nM) and probed as indicated. B) Immunoblots of lysates from JURKAT cells treated with escalating doses of silvestrol and probed as indicated. C) mRNA levels for the corresponding genes treated with vehicle (DMSO, black) or silvestrol (red, 25 nM); D) Volcano plot of mRNA expression changes of all TE Down and rDiff genes in T-ALL samples (n=9) compared to normal thymocytes (n=4). E) Kaplan-Meier analysis showing time to leukemia development (as in FIG. 1B). Wild-type HPCs transduced with NOTCH1-ICN and empty vector (black, n=14), Myb (red, n=4), Ccnd3 T283A (orange, n=5), or shEzh2 (orange, n=10), vavP-Bcl2 (brown, n=4), p53−/− (green, n=3). F) Effect of OmoMYCER activation on survival of leukemic animals; (d=0 represents start of therapy/tamoxifen (TAM) administration). Inset: clearance of GFP expressing murine T-ALL cells from the marrow upon OmomycER activation (Untr: untreated, TAM: tamoxifen). G) Competition experiment (as in FIG. 1C/D) showing the percentage of each starting GFP positive population of murine T-ALL cells partially transduced with the indicated constructs and treated with silvestrol (* indicates p<0.05).
FIG. 13 depicts the relative contribution of MYC and other silvestrol targets in T-ALL. […]

[4] = test system: neuroblastoma cell lines SKNAS, CLBGA, IMR32 and N206; assay: Silvestrol IC50 in neuroblastoma cell lines SKNAS, CLBGA, IMR32 and N206; type: cell-based

Molecule	block of cap-dependent versus IRES-dependent translation [1]	in vitro activity against T-ALL compared with silvestrol ([2]; not shown)	tumor growth (KOPT-K1 xenografts; 0.2 mg/kg, n=8, p<0.001)	pathologic analysis of treated tumors (TUNEL, Ki-67) (KOPT-K1 xenografts; treated KOPT-K1 tumors)	toxicity, death, weight loss (KOPT-K1 xenografts)	phosphorylation of AKT (T308) [3]	ribosomal S6 phosphorylation / S6 kinase activity [3]	target protein levels compared with silvestrol result (JURKAT and KOPT-K1 cells; 24H)	IC50 ([2]; primary human T-ALL samples in vitro, 48 hours)	tumor growth (KOPT-K1 xenografts; 0.5 mg/kg, n=7, p<0.001)	ACTIN, TUBULIN and GAPDH protein levels (JURKAT and KOPT-K1 cells)	MYB, CDK6, EZH2 and RUNX1/AML1 protein expression (JURKAT and KOPT-K1 cells)	MYC, NOTCH1, BCL2 and CCND3 protein levels (JURKAT and KOPT-K1 cells)	IC50 [4]
(±)-CR-31-B	preferentially block cap-dependent over IRES-dependent translation	similar	significant delay in tumor growth	diffuse apoptosis by TUNEL and loss of proliferation by Ki-67	no severe toxicity, death, or weight loss	did not lead to phosphorylation of AKT (T308)	does not affect S6 kinase activity	same result was confirmed	–	–	–	–	–	–
COC(=O)[C@H]1[C@@H](O)[C@@]2(O)c3c(OC)cc(O[C@@H]4O[C@@H]([C@H](O)CO)CO[C@H]4OC)cc3O[C@@]2(c2ccc(OC)cc2)[C@@H]1c1ccccc1 [silvestrol]	preferentially block cap-dependent over IRES-dependent translation	–	–	–	no severe toxicity, death, or weight loss	did not lead to phosphorylation of AKT (T308)	does not affect S6 kinase activity	–	3 to 13 nM	significant delay in tumor growth	not affected	somewhat less decreased	dramatic loss	2 to 20 nM
